In US20250326744A1, “PIPERAZINE DERIVATIVE OR SALT THEREOF, AND PHARMACEUTICAL COMPOSITION” (priority 2022, published 2025):
Counter-ions that a name gives are not always drawn.

Key:
mexB (PA) strain = test: Combinational effect with antibacterial agent against Pseudomonas aeruginosa (Test Examples 2 and 4): mexB (PA) strain with LVFX, TC or AZT at 1/4 MIC, EC99; type: cell-based; conditions: for EC99, mexB (PA), AZT / EC99, combinational effect with AZT, mexB (PA): combined with AZT at 1/4 MIC; for EC99, mexB (PA), TC / EC99, combinational effect with TC, mexB (PA): combined with TC at 1/4 MIC; for EC99, combinational effect with AZT, mexB (PA) / EC99, combinational effect with LVFX, mexB (PA) / EC99, combinational effect with TC, mexB (PA): mexB (PA) strain, Test Example 4
Summary of the method: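 P. aeruginosa mexB (PA) strain, lacking MexCD-OprJ, MexEF-OprN and MexXY and overexpressing MexAB-OprM, grown 16–20 h in CAMHB (10^4–5 CFU/well) with LVFX, TC or AZT at ¼ MIC plus test compound at 0–800 μM. Growth read as OD595; EC99 is the lowest compound concentration giving ≥99% growth inhibition.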

S-3769 strain = test: Combinational effect with antibacterial agent against Pseudomonas aeruginosa (Test Examples 2 and 4): S-3769 strain with AMK or GM at 1/4 MIC, EC99; type: cell-based; conditions: for EC99, S-3769 strain, AMK / EC99, S-3769 strain, GM: Table 52, Test Example 2, 16 to 20 hours culture, OD595; for EC99, S-3769 strain, AMK / EC99, combinational effect with AMK, S-3769 strain: combined with AMK at 1/4 MIC; for EC99, S-3769 strain, GM / EC99, combinational effect with GM, S-3769 strain: combined with GM at 1/4 MIC; for EC99, combinational effect with AMK, S-3769 strain / EC99, combinational effect with GM, S-3769 strain: Test Example 4
Summary of the method: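 P. aeruginosa S-3769 (clinical isolate, MexY overexpressed) grown 16–20 h in CAMHB, 10^4 to 5 CFU/well, with AMK or GM at ¼ MIC plus test compound 0–800 μM. Growth read as OD595; EC99 is the lowest compound concentration giving ≥99% growth inhibition.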

[1] = Table 52, Test Example 2, 16 to 20 hours culture, OD595

Row | Compound | EC99, mexB (PA), AZT (mexB (PA) strain; [1]) | EC99, mexB (PA), LVFX (mexB (PA) strain; Table 52, Test Example 2, combined with LVFX at 1/4 MIC, 16 to 20 hours culture, OD595) | EC99, mexB (PA), TC (mexB (PA) strain; [1]) | EC99, S-3769 strain, AMK (S-3769 strain) | EC99, S-3769 strain, GM (S-3769 strain) | EC99, combinational effect with AZT, mexB (PA) (mexB (PA) strain) | EC99, combinational effect with LVFX, mexB (PA) (mexB (PA) strain; combined with LVFX at 1/4 MIC) | EC99, combinational effect with TC, mexB (PA) (mexB (PA) strain) | EC99, combinational effect with AMK, S-3769 strain (S-3769 strain) | EC99, combinational effect with GM, S-3769 strain (S-3769 strain)
1 | CCOc1cccc(F)c1CN1CCN(C(=O)CN2CCC(CN)(CCc3ccccc3)CC2)CC1 [Example 425, hydrobromide of 2-(4-(aminomethyl)-4-phenethylpiperidin-1-yl)-1-(4-(2-ethoxy-6-fluorobenzyl)piperazin-1-yl)ethan-1-one] | C (100 μM<EC99) | C (100 μM<EC99) | C (100 μM<EC99) | B (25 μM<EC99≤100 μM) | B (25 μM<EC99≤100 μM) |  |  |  |  | 
2 | CCOc1cccc(F)c1CN1CCN(C(=O)CN2CCC(CCc3ccccc3)(CNCCN)CC2)CC1 [Example 426, hydrochloride of 2-(4-(((2-aminoethyl)amino)methyl)-4-phenethylpiperidin-1-yl)-1-(4-(2-ethoxy-6-fluorobenzyl)piperazin-1-yl)ethan-1-one] | B (25 μM<EC99≤100 μM) |  | B (25 μM<EC99≤100 μM) | B (25 μM<EC99≤100 μM) | B (25 μM<EC99≤100 μM) |  |  |  |  | 
3 | CCOc1cccc(F)c1CN1CCN(C(=O)[C@H](N)C2CCN(CCc3cc(Cl)ccc3-c3cn[nH]c3)CC2)CC1 [Example 502, Hydrobromide of (R)-2-amino-2-(1-(S-chloro-2-(1H-pyrazol-4-yl)phenethyl)piperidin-4-yl)-1-(4-(2-ethoxy-6-fluorobenzyl)piperazin-1-yl)ethan-1-one] |  |  |  |  |  | C (100 μM<EC99) | B (25 μM<EC99≤100 μM) | B (25 μM<EC99≤100 μM) | S (EC99≤12.5 μM) | S (EC99≤12.5 μM)
4 | CCOc1cccc(F)c1CN1CCN(C(=O)[C@H](N)C2CCN(CCc3cc(Cl)ccc3-c3cncs3)CC2)CC1 [Example 504, Hydrobromide of (R)-2-amino-2-(1-(5-chloro-2-(thiazol-5-yl)phenethyl)piperidin-4-yl)-1-(4-(2-ethoxy-6-fluorobenzyl)piperazin-1-yl)ethan-1-one] |  |  |  |  |  | B (25 μM<EC99≤100 μM) | B (25 μM<EC99≤100 μM) | B (25 μM<EC99≤100 μM) | A (12.5 μM<EC99≤25 μM) | A (12.5 μM<EC99≤25 μM)
5 | CCc1ccccc1CN1CCN(C(=O)[C@H](N)C2CCN(CCc3cc(Cl)ccc3-c3ccccc3)CC2)CC1 [Example 505, Hydrobromide of (R)-2-amino-2-(1-(2-(4-chloro-[1,1-biphenyl]-2-yl)ethyl)piperidin-4-yl)-1-(4-(2-ethylbenzyl)piperazin-1-yl)ethan-1-one] |  |  |  |  |  | B (25 μM<EC99≤100 μM) | B (25 μM<EC99≤100 μM) | B (25 μM<EC99≤100 μM) | B (25 μM<EC99≤100 μM) | B (25 μM<EC99≤100 μM)
6 | N[C@@H](C(=O)N1CCN(Cc2ccccc2C2CC2)CC1)C1CCN(CCc2cc(Cl)ccc2-c2ccccc2)CC1 [Example 507, Hydrobromide of (R)-2-amino-2-(1-(2-(4-chloro-[1,1-biphenyl]-2-yl)ethyl)piperidin-4-yl)-1-(4-(2-cyclopropylbenzyl)piperazin-1-yl)ethan-1-one] |  |  |  |  |  | B (25 μM<EC99≤100 μM) | B (25 μM<EC99≤100 μM) | B (25 μM<EC99≤100 μM) | B (25 μM<EC99≤100 μM) | B (25 μM<EC99≤100 μM)
7 | N[C@@H](C(=O)N1CCN(Cc2ccccc2C(F)(F)F)CC1)C1CCN(CCc2cc(Cl)ccc2-c2ccccc2)CC1 [Example 510, Hydrobromide of (R)-2-amino-2-(1-(2-(4-chloro-[1,1-biphenyl]-2-yl)ethyl)piperidin-4-yl)-1-(4-(2-(trifluoromethyl)benzyl)piperazin-1-yl)ethan-1-one] |  |  |  |  |  | B (25 μM<EC99≤100 μM) | B (25 μM<EC99≤100 μM) | A (12.5 μM<EC99≤25 μM) | A (12.5 μM<EC99≤25 μM) | B (25 μM<EC99≤100 μM)
8 | CCOc1ncccc1CN1CCN(C(=O)[C@H](N)C2CCN(CCc3cc(Cl)ccc3-c3ccccc3)CC2)CC1 [Example 511, Hydrobromide of (R)-2-amino-2-(1-(2-(4-chloro-[1,1-biphenyl]-2-yl)ethyl)piperidin-4-yl)-1-(4-((2-ethoxypyridin-3-yl)methyl)piperazin-1-yl)ethan-1-one] |  |  |  |  |  | B (25 μM<EC99≤100 μM) | C (100 μM<EC99) | B (25 μM<EC99≤100 μM) | B (25 μM<EC99≤100 μM) | A (12.5 μM<EC99≤25 μM)
9 | CCOc1ccncc1CN1CCN(C(=O)[C@H](N)C2CCN(CCc3cc(Cl)ccc3-c3ccccc3)CC2)CC1 [Example 512, Hydrobromide of (R)-2-amino-2-(1-(2-(4-chloro-[1,1-biphenyl]-2-yl)ethyl)piperidin-4-yl)-1-(4-((4-ethoxypyridin-3-yl)methyl)piperazin-1-yl)ethan-1-one] |  |  |  |  |  | B (25 μM<EC99≤100 μM) | B (25 μM<EC99≤100 μM) | B (25 μM<EC99≤100 μM) | A (12.5 μM<EC99≤25 μM) | A (12.5 μM<EC99≤25 μM)
10 | N[C@@H](C(=O)N1CCN(Cc2cccc3c2CCN3)CC1)C1CCN(CCc2cc(Cl)ccc2-c2ccccc2)CC1 [Example 513, Hydrobromide of (R)-2-amino-2-(1-(2-(4-chloro-[1,1-biphenyl]-2-yl)ethyl)piperidin-4-yl)-1-(4-(indolin-4-ylmethyl)piperazin-1-yl)ethan-1-one] |  |  |  |  |  | B (25 μM<EC99≤100 μM) | B (25 μM<EC99≤100 μM) | B (25 μM<EC99≤100 μM) | B (25 μM<EC99≤100 μM) | B (25 μM<EC99≤100 μM)
11 | N[C@@H](C(=O)N1CCN(Cc2cccc3c2CCCO3)CC1)C1CCN(CCc2cc(Cl)ccc2-c2ccccc2)CC1 [Example 515, Hydrobromide of (R)-2-amino-2-(1-(2-(4-chloro-[1,1-biphenyl]-2-yl)ethyl)piperidin-4-yl)-1-(4-(chroman-5-ylmethyl)piperazin-1-yl)ethan-1-one] |  |  |  |  |  | B (25 μM<EC99≤100 μM) | B (25 μM<EC99≤100 μM) | A (12.5 μM<EC99≤25 μM) | B (25 μM<EC99≤100 μM) | B (25 μM<EC99≤100 μM)
12 | Cc1ccsc1CN1CCN(C(=O)[C@H](N)C2CCN(CCc3cc(Cl)ccc3-c3ccccc3)CC2)CC1 [Example 516, Hydrobromide of (R)-2-amino-2-(1-(2-(4-chloro-[1,1-biphenyl]-2-yl)ethyl)piperidin-4-yl)-1-(4-((3-methylthiophen-2-yl)methyl)piperazin-1-yl)ethan-1-one] |  |  |  |  |  | B (25 μM<EC99≤100 μM) | B (25 μM<EC99≤100 μM) | B (25 μM<EC99≤100 μM) | B (25 μM<EC99≤100 μM) | B (25 μM<EC99≤100 μM)
13 | N[C@@H](C(=O)N1CCN(Cc2c(F)cccc2N2CCCC2)CC1)C1CCN(CCc2cc(Cl)ccc2-c2ccccc2)CC1 [Example 517, Hydrobromide of (R)-2-amino-2-(1-(2-(4-chloro-[1,1-biphenyl]-2-yl)ethyl)piperidin-4-yl)-1-(4-(2-fluoro-6-(pyrrolidin-1-yl)benzyl)piperazin-1-yl)ethan-1-one] |  |  |  |  |  | B (25 μM<EC99≤100 μM) | C (100 μM<EC99) | B (25 μM<EC99≤100 μM) | B (25 μM<EC99≤100 μM) | B (25 μM<EC99≤100 μM)
14 | Nc1nc2c(CN3CCN(C(=O)[C@H](N)C4CCN(CCc5cc(Cl)ccc5-c5ccccc5)CC4)CC3)cccc2s1 [Example 519, Hydrobromide of (R)-2-amino-1-(4-((2-aminobenzo[d]thiazol-4-yl)methyl)piperazin-1-yl)-2-(1-(2-(4-chloro-[1,1-biphenyl]-2-yl)ethyl)piperidin-4-yl)ethan-1-one] |  |  |  |  |  | C (100 μM<EC99) | C (100 μM<EC99) | B (25 μM<EC99≤100 μM) | B (25 μM<EC99≤100 μM) | B (25 μM<EC99≤100 μM)
